Data taken from US8895313B2, “Ligands for aggregated tau molecules” (Wista Laboratories Ltd., priority 2008, dated 2014).

What follows are compounds tested against PHF (paired helical filaments) isolated from the brain of an Alzheimer's disease patient (Homo sapiens, UniProt P10636) (assay: Competitive binding assay: displacement of primulin fluorescence from PHFs). Conditions: compound fluorescent, no P50 obtainable.
Sequence of PHF (paired helical filaments) isolated from the brain of an Alzheimer's disease patient (P10636 623-708 limits assumed): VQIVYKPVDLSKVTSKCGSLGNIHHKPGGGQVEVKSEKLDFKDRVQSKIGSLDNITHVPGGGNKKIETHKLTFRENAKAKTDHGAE
Parameters: key to P50: fl indicates that the compound is fluorescent. Consequently, binding levels for the compound in the competition binding assay cannot be determined by fluorescent spectroscopy
Experimental: The DSB compounds were tested for their ability to bind to PHF in a competition-style assay.
If a test compound that also binds to PHFs with the same or greater affinity is added, it will displace the reference ligand and reduce the fluorescence signal. In the present assay, the reference compound is primulin, which was added at 1 μM. Test compounds were added at concentrations from 0.05 to 1 μM. The P50 for a test compound is defined as the concentration of compound that reduces the primulin signal to 50% of the control value. This value is, therefore, not an absolute affinity, but a relative affinity compared to the affinity of primulin.
PHFs were isolated from the brain of an Alzheimer's disease patient essentially as described by Wischik et al. (Neurobiology of Aging, Vol. 16, pp. 409-431, 1995). The IFII fraction was isolated by centrifugation on a sucrose gradient as described in the PhD thesis of C. M. Wischik, and was further extracted into an ‘abc sup’ as described by C. M. Wischik (Thesis “The structure and biochemistry of paired helical filaments in Alzheimer's disease” Part I and II; Cambridge University, 1989).
The assay for ligand activity was performed in 96 well plates (Nunc Cat. No. 236108). The test compound at the required concentration was mixed with PHFs, then primulin was added to give a final concentration of 1 μM and a total volume of 100 μl. The concentration of PHFs added was determined for each preparation to give an adequate fluorescence signal, and was typically in the range 1-2 μl/100 μl. The test compounds were typically dissolved in DMSO to give a final concentration of 10% DMSO in the assay. The control fluorescence, in the absence of PHFs, was also measured in the presence of 10% DMSO.
The fluorescence was measured in a Varian Carey Eclipse Fluorescence Spectrophotometer, with the […] wavelength at 480 nm. Excitation spectra were recorded and corrected by subtraction of the signal measured in the absence of PHFs, using the Varian software. The fluorescence signal at the peak […] wavelength of 420 nm was measured from the corrected spectra. The fluorescence values were plotted as a function of concentration of test compound, and the value for P50 measured from the graph.
`COc1ccc2nc(-c3ccc(/C=C/c4ccc(F)cc4)cc3)sc2c1` [BEFA-10] was tested, and the P50 was “fl”.
In the case of `Oc1ccc2nc(-c3ccc(/C=C/c4cc(OC(F)(F)F)ccc4O)cc3)sc2c1` [BEHF-06], the P50 is reported as “fl”.
In the case of `Cc1ccc2nc(-c3ccc(/C=C/c4ccc(N(C)C)cc4)cc3)sc2c1` [BEMA-08], the P50 is reported as “fl”.

Same assay, conditions: concentration that reduces the signal of 1 μM primulin to 50% of control; relative affinity
`COc1ccc2nc(-c3ccc(/C=C/c4ccc(N)cc4)cc3)sc2c1` [BEMOA-06] was tested, and the P50 was “no effect”.
In the case of `Cc1ccc2nc(-c3ccc(/C=C/c4ccccc4O)cc3)sc2c1` [BEMA-09], the P50 is reported as “no effect”.
`Cc1ccc2nc(-c3ccc(NC(=O)c4ccncc4)cc3)cn2c1` [AIPN-03] was tested, and the P50 was “no effect”.
`Cc1ccc2nc(-c3ccc(/C=C/c4ccccc4N)cc3)sc2c1` [BEMA-05] was tested, and the P50 was “no effect”.
In the case of `COc1ccc2nc(-c3ccc(/C=C/c4ccc(C(F)(F)F)cc4)cc3)sc2c1` [BEFA-03], the P50 is reported as “no effect”.
`COc1cc(NC(=O)c2ccccc2N(C)C)ccc1-c1nc2ccc(O)cc2s1` [ABHA-04] was tested, and the P50 was “no effect”.
`COc1ccc2nc(-c3ccc(/C=C/c4ccc(NCCCC(F)(F)F)cc4)cc3)sc2c1` [BEFA-09] was tested, and the P50 was “no effect”.
For `COc1ccc2nc(-c3ccc(NC(=O)c4ccc(OCC(F)(F)F)cc4)cc3)sc2c1` [ABFMA-19], the P50 was “no effect”.
In the case of `COc1ccc(C(=O)Nc2ccc(-c3nc4ccc(OC)cc4s3)cc2OC)c(C(F)(F)F)c1` [ABFMA-10], the P50 is reported as “no effect”.
`Oc1ccc2nc(-c3ccc(/C=C/c4ccc(NCCCC(F)(F)F)cc4)cc3)sc2c1` [BEHF-04] was tested, and the P50 was “no effect”.
`Cc1ccc2nc(-c3ccc(/C=C/c4ccc(O)cc4)cc3)sc2c1` [BEMA-11] was tested, and the P50 was “no effect”.
With `COc1ccc2nc(-c3ccc(/C=C/c4ccccc4C(F)(F)F)cc3)sc2c1` [BEFA-01] the P50 was “no effect”.
In the case of `Cc1ccc2nc(-c3ccc(NC(=O)c4ccc(F)nc4)cc3)cn2c1` [AIPN-06], the P50 is reported as “no effect”.
`Cc1ccc2nc(-c3ccc(/C=C/c4ccccc4)cc3)sc2c1` [BEMA-01] was tested, and the P50 was “no effect”.
For `COc1ccc2nc(-c3ccc(NC(=O)c4ccccc4C(F)(F)F)cc3)sc2c1` [ABFMA-01], the P50 was “no effect”.
In the case of `COc1ccc2nc(-c3ccc(/C=C/c4ccc(OCC(F)(F)F)cc4)cc3)sc2c1` [BEFA-04], the P50 is reported as “no effect”.
In the case of `Cc1ccc2nc(-c3ccc(NC(=O)c4ccccc4N(C)C)cc3)sc2c1` [ABAA-07], the P50 is reported as “no effect”.
For `COc1ccc2nc(-c3ccc(NC(=O)c4ccc(OCCCC(F)(F)F)cc4)cc3)sc2c1` [ABFMA-13], the P50 was “no effect”.
In the case of `COc1ccc2nc(-c3ccc(/C=C/c4cccc(C(F)(F)F)c4)cc3)sc2c1` [BEFA-02], the P50 is reported as “no effect”.
For `CNc1cccc(C(=O)Nc2ccc(-c3nc4ccc(C)cc4s3)cc2)c1` [ABAA-12], the P50 was “no effect”.
In the case of `COc1ccc2nc(-c3ccc(NC(=O)c4ccc(F)cc4)cc3)sc2c1` [ABMFMA-01], the P50 is reported as “no effect”.

Same assay, conditions: concentration that reduces the signal of 1 μM primulin to 50% of control; relative affinity; read-out: P50
For `COc1cc(NC(=O)c2ccc(F)c([N+](=O)[O-])c2)ccc1-c1nc2ccccc2s1` [AUB-01], the IC50 was > 1 µM.
Compound `Oc1ccc(/N=N/c2ccc(-c3nc4ccc(O)cc4s3)cc2O)c(OC(F)(F)F)c1` [BDF-17] has an IC50 of 0.03 µM.
`Cc1ccc2nc(-c3ccc(NC(=O)c4ccc(N(C)C)cc4)cc3)cn2c1` [AIPN-02] gave an IC50 of 0.31 µM.
In the case of `Cc1ccc2nc(-c3ccc(/N=N/c4ccc(O)cc4C(F)(F)F)cc3)sc2c1` [BDF-01], the IC50 is reported as 0.29 µM.
In the case of `Cc1ccc2nc(-c3ccc(NC(=O)c4ccc(Cl)nc4)cc3)cn2c1` [AIPN-18], the IC50 is reported as > 1 µM.
`Nc1ccccc1C(=O)Nc1ccc(-c2nc3ccc(O)cc3s2)cc1` [ABHA-01] showed an IC50 of 0.9 µM.
`COc1ccc2nc(-c3ccc(NC(=O)c4ccc(N)cc4)cc3)sc2c1` [ABMA-06] showed an IC50 of 0.37 µM.
`COc1ccc2nc(-c3ccc(NC(=O)c4ccc(OC(C)=O)cc4)cc3)sc2c1` [ABMA-10] gave an IC50 of 0.31 µM.
`COc1ccc(C(=O)Nc2ccc(-c3cn4cc(C)ccc4n3)cc2)cc1` [AIPN-13] was tested, and the IC50 was 0.63 µM.
In the case of `Cc1ccc2nc(-c3ccc(NC(=O)c4cccc(F)n4)cc3)cn2c1` [AIPN-07], the IC50 is reported as > 1 µM.
For `Cc1ccc2nc(-c3ccc(NC(=O)c4ccc(O)cc4)cc3)cn2c1` [AIPN-14], the IC50 was 0.5 µM.
For `COc1ccc2nc(-c3ccc(NC(=O)c4ccc(I)c([N+](=O)[O-])c4)cc3)sc2c1` [ABMFMA-09], the IC50 was 0.21 µM.
With `Oc1ccc(/N=N/c2ccc(-c3nc4cc(O)ccc4s3)cc2)c(C(F)(F)F)c1` [BDF-05] the IC50 was 0.09 µM.
`Cc1ccc2nc(-c3ccc(NC(=O)c4ccccc4)cc3)sc2c1` [ABAA-10] gave an IC50 of ~1.2 µM.
Compound `CNc1ccc(C(=O)Nc2ccc(-c3cn4cc(C)ccc4n3)cc2)cc1` [AIPN-12] has an IC50 of 0.33 µM.
In the case of `Oc1ccc(/N=N/c2ccc(-c3nc4ccc(OC(F)(F)F)cc4s3)cc2)cc1` [BDF-07], the IC50 is reported as 0.72 µM.
`COCCOCCOCCOc1cc(NC(=O)c2ccc(F)c([N+](=O)[O-])c2)ccc1-c1nc2ccccc2s1` [AUB-02] was tested, and the IC50 was > 1 µM.
With `O=C(Nc1ccc(-c2nc3ccc(O)cc3s2)cc1)c1ccc(F)c([N+](=O)[O-])c1` [ABFHA-11] the IC50 was 0.31 µM.
In the case of `COc1cc(F)c(C(=O)Nc2ccc(-c3cn4cc(C)ccc4n3)cc2)c(F)c1` [AIPN-25], the IC50 is reported as > 1 µM.
In the case of `Cc1ccc2nc(-c3ccc(NC(=O)c4ccc(N)cc4)cc3)cn2c1` [AIPN-11], the IC50 is reported as 0.66 µM.
`COc1ccc2nc(-c3ccc(NC(=O)c4cccc(N)c4)cc3)sc2c1` [ABMA-05] gave an IC50 of 0.85 µM.
`COc1ccc2nc(-c3ccc(NC(=O)c4ccc(N(C)C)cc4)cc3)sc2c1` [ABMA-09] showed an IC50 of 0.17 µM.
For `CN(C)CCOc1cc(NC(=O)c2ccc([N+](=O)[O-])c(C(F)(F)F)c2)ccc1-c1nc2ccccc2s1` [AUB-03], the IC50 was > 1 µM.
Compound `COc1ccc2nc(-c3ccc(NC(=O)c4ccccc4N)cc3)sc2c1` [ABMA-04] has an IC50 of 0.87 µM.
`COc1ccc2nc(-c3ccc(NC(=O)c4ccc(O)cc4)cc3)sc2c1` [ABMA-11] showed an IC50 of 0.43 µM.
`Cc1ccc2nc(-c3ccc(NC(=O)c4ccc(N)cc4)cc3)sc2c1` [ABAA-06] was tested, and the IC50 was 0.52 µM.
For `COc1ccc2nc(-c3ccc(NC(=O)c4ccc(O)c([N+](=O)[O-])c4)cc3)sc2c1` [ABMA-13], the IC50 was 0.31 µM.
For `COc1cccc2sc(-c3ccc(/N=N/c4ccc(C(F)(F)F)cc4O)cc3)nc12` [BDF-12], the IC50 was 0.7 µM.
In the case of `Cc1ccc2nc(-c3ccc(NC(=O)c4ccc([N+](=O)[O-])c(C(F)(F)F)c4)cc3)cn2c1` [AIPN-09], the IC50 is reported as 0.34 µM.
`O=C(Nc1ccc(-c2nc3ccc(O)cc3s2)cc1)c1ccc(OCC(F)(F)F)cc1` [ABFHA-03] was tested, and the IC50 was 0.1 µM.
In the case of `COc1ccc2nc(-c3ccc(NC(=O)c4ccc(Br)c([N+](=O)[O-])c4)cc3)sc2c1` [ABMFMA-08], the IC50 is reported as > 1 µM.
With `Cc1ccc2nc(-c3ccc(/C=C/c4ccc([N+](=O)[O-])cc4)cc3)cn2c1` [IEPN-01] the IC50 was 0.05 µM.
In the case of `Nc1ccc(C(=O)Nc2ccc(-c3nc4ccc(O)cc4s3)cc2)cc1` [ABHA-03], the IC50 is reported as 0.45 µM.
For `CN(C)CCOc1ccc2nc(-c3ccc(NC(=O)c4ccc([N+](=O)[O-])c(C(F)(F)F)c4)cc3)sc2c1` [ABDMAA-01], the IC50 was 0.98 µM.
`Cc1ccc2nc(-c3ccc(NC(=O)c4ccc(O)cc4F)cc3)cn2c1` [AIPN-29] gave an IC50 of 0.7 µM.
For `Cc1ccc2nc(-c3ccc(/N=N/c4cc(C(F)(F)F)ccc4O)cc3)sc2c1` [BDF-02], the IC50 was 0.46 µM.
`Cc1ccc2nc(-c3ccc(NC(=O)c4ccc(O)c(F)c4)cc3)cn2c1` [AIPN-27] was tested, and the IC50 was > 1 µM.
`CNc1ccc(C(=O)Nc2ccc(-c3cn4cc(C)ccc4n3)cc2)cc1F` [AIPN-20] was tested, and the IC50 was 0.27 µM.
With `COc1ccc2nc(-c3ccc(NC(=O)c4ccc(N)c(C(F)(F)F)c4)cc3)sc2c1` [ABFMA-15] the IC50 was 0.43 µM.
Compound `COc1ccc2nc(-c3ccc(NC(=O)c4ccc(F)nc4)cc3)sc2c1` [ABMFMA-02] has an IC50 of 0.89 µM.
